Source: article PMC6656545 (Science Advances, 2019)
Where two headings read alike, the source gives them in different places. Where no end group is shown, it is not given here.

Assays:
[1] = in 4 hours; cited from earlier work
[2] = clinical dose, human volunteers; cited from earlier work
[3] = test system: BALB/c mice; assay: Multidose cumulative toxicity, mouse survival; type: in vivo; settings: repeated maximum sublethal doses
[4] = Single-dose in vivo toxicity, LD50 determination; parameters: species or system mouse; settings: BALB/c, mouse, in vivo, ip
[5] = test system: panel of 30 type cultures; assay: I_score ranking from the MICs of 30 type cultures; settings: number of cultures inhibited with the lowest MIC among the five peptides
[6] = test system: A. baumannii (P1270); assay: Time-kill curves in ex vivo whole human blood; settings: in 60 min; Ω76 32 mg/liter, colistin 5 mg/liter
[7] = test system: A. baumannii (P1270); assay: Radiolabeled phosphate leakage radioassay; type: cell-based; settings: in 60 min; Ω76 32 mg/liter, colistin 5 mg/liter
[8] = clinical dose, mouse serum; cited from earlier work
[9] = cited from earlier work
[10] = test system: BALB/c mice; assay: Kidney and liver histopathology after multidose treatment; type: in vivo, mouse; settings: after 11 maximum sublethal doses
[11] = test system: BALB/c mice; assay: Single-dose in vivo toxicity, LD50 determination; parameters: species or system mouse
[12] = cited from earlier work; remark: listed apart in the source
[13] = young patient cohort, Walter Reed Army Medical Center

Compound: C[C@@H](O)[C@H]1C(=O)N2C(C(=O)O)=C(S[C@@H]3CN[C@H](C(=O)N(C)C)C3)[C@H](C)[C@H]12 [meropenem]
- CFU reduction [1]: 100 fold
- time above MIC concentrations in serum [2]: 5 h

Compound: H-GIGKFLKKAKKFGKAFVKILKK-NH2 [Pexiganan]
- mortality in mice [3]: 100%
- LD50 at 5 days [4]: 60 mg/kg

Compound: IKALGKKLRKGKKKIGKKVK [Ω93]
- I_score [5]: 1

Compound: colistin
- CFU reduction [6]: 32 fold
- intracellular phosphate lost [7]: 25%
- time above MIC concentrations in serum [8]: 100 min
- acute kidney injury ([9]; Korean elderly patient cohort, treated for ≥72 hours): 54.6%
- acute kidney injury ([9]; Turkish elderly patient cohort): 46.1%
- acute kidney injury [9, 13]: 45%
- cessation of treatment due to nephrotoxicity [9, 13]: 21%
- mortality in mice [3]: 50%
- kidney histology [10]: extensive renal damage
- liver histology [10]: displaying no damage
- LD50 (median lethal dose) ([11]; intraperitoneal, monitored 5 days, linear interpolation): 30 mg/kg
- maximum sublethal dose ([11]; intraperitoneal, single dose): 16 mg/kg
- mortality (mice) ([11]; single dose of 32 mg/kg): 3 of 5

Compound: gramicidin S
- hemolytic properties [12]: display hemolytic properties

Compound: lactoferrampin
- hemolytic properties [12]: display hemolytic properties

Compound: melittin
- hemolytic properties [12]: display hemolytic properties
